As usually defined, the IC50 is the concentration at which inhibition is half-maximal. Broadly, the ED50 is the midpoint of the dose-response relation.

Results on four compounds are retold here after patent publication US5491169A, “Amino acid derivatives and their therapeutical applications” (priority 1989, dated 1996).

Data set [1] has as its target T1, purified rabbit kidney neutral endopeptidase (Oryctolagus cuniculus, UniProt P08049).
T1 construct: from tissue; host or cells: rabbit kidney (purified enzyme)
T1 sequence (P08049 1-750): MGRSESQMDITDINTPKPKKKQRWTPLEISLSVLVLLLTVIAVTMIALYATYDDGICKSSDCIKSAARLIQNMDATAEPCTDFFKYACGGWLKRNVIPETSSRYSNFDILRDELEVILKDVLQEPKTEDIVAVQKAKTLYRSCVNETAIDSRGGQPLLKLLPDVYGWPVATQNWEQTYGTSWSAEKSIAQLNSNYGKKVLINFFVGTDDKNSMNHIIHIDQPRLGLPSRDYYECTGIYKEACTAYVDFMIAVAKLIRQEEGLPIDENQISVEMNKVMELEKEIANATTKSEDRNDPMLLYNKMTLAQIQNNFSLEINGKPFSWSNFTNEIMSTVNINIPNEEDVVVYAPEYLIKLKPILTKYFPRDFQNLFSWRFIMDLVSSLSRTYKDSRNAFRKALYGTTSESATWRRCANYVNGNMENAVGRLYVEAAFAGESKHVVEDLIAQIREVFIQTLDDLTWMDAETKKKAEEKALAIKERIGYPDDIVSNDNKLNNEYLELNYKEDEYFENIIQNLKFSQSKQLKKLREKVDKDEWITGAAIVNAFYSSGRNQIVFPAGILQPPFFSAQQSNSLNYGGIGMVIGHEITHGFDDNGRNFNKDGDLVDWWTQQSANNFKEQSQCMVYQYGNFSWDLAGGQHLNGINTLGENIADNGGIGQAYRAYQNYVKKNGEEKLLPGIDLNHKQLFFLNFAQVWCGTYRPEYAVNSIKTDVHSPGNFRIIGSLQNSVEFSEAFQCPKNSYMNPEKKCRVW
Description: In vitro inhibitory potency against neutral endopeptidase. The data set is classed as biochemical. Conditions: purified rabbit kidney enzyme, (3H)-D-Ala2-Leu5-enkephalin, 25° C., pH 7.4, DTT 100 equivalents. The protocol:
(§1) The biological activity relates to the inhibition of purified aminopeptidase N and of purified neutral endopeptidase.
(§2) 1) In vitro inhibition of enkephalinase activities.
a) Inhibitory potency against neutral endopeptidase
The inhibitory power is determined on purified rabbit kidney neutral endopeptidase following the protocol described in the literature (Blumberg et al. Life Sci. (1981) 28, 301). After a preincubation for 15 minutes at 25° C., an aliquot of proteins is incubated for 20 minutes at 25° C. in the presence of 20 nmol of (^3 H)-D-Ala^2 -Leu^5 -enkephalin and the test compound in solution in Tris-HCl buffer (pH 7.4) in the presence of dithiothreitol DTT (100 equivalents relative to the inhibitor). The reaction is stopped by adding 0.2 N HCl. The tritiated metabolite (^3 H)-Tyr-D-Ala-Gly is separated from the D-Ala^2 -Leu^5 -enkephalin by chromatography on a Porapak column, and the quantity formed measured using a liquid scintillation counter.
The activity of the different compounds is expressed as 50% inhibitory concentrations (IC50), and the results are summarized in Table II.

The nature of a further data set: Mice despair test. The data set is classed as in vivo. Conditions: mouse, controls 165 ± 15, p < 0.01. The protocol:
This test, described by Porsolt et al. (Arch. Int. Pharmacodyn. Ther, 299, 327 (1977), enables the antidepressant properties of the claimed compounds to be evaluated.
Mice are treated with increasing doses of the compounds thirty minutes before the test, and the immobility of the animals is measured relative to controls which receive only the vehicle. The immobility time is decreased by the compounds according to the invention, and this effect is antagonized by naloxame (0.5 mg/kg s.c.).

For data set [2], the target named is T2, purified porcine kidney aminopeptidase N (Sus scrofa, UniProt P15145).
T2 construct: purchased Boehringer, France; host or cells: porcine kidney
T2 sequence (P15145 1-963): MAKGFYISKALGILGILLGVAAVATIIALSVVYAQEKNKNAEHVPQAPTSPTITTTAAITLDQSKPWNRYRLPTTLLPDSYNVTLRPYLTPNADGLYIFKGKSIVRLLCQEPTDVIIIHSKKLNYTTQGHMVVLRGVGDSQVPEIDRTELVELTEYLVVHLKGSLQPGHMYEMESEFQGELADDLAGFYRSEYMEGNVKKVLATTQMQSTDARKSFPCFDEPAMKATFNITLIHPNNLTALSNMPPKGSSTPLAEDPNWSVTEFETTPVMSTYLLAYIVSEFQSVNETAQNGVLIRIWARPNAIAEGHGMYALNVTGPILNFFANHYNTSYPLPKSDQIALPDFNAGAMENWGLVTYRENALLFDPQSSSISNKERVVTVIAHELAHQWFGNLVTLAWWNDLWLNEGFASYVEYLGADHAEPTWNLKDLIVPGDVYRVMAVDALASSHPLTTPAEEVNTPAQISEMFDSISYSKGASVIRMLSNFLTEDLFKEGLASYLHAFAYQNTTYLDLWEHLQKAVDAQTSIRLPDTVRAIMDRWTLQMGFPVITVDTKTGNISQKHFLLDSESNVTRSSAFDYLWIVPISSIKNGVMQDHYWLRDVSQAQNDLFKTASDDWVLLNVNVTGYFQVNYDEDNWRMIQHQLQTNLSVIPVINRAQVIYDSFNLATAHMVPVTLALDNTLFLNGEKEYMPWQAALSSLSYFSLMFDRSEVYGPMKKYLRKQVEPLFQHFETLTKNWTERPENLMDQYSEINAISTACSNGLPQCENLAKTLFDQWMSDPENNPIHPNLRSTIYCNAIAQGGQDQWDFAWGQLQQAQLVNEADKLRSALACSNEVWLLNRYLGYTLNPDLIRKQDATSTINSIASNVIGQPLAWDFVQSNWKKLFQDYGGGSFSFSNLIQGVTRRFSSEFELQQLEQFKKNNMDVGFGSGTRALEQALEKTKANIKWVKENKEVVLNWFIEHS
As to the kind of experiment: In vitro inhibitory potency against aminopeptidase N. The data set is classed as biochemical. The settings on record: purified porcine kidney enzyme, (3H)-Leu5-enkephalin, DTT. As to the method:
as §1, §2
b) Inhibitory potency against aminopeptidase N
The inhibitory power is measured on purified porcine kidney aminopeptidase (Boehringer, France). The assay is performed in a manner identical to the above, using (^3 H)-Leu^5 -enkephalin as a substrate. The metabolite formed, (^3 H)-Tyr, is separated by chromatography on a Porapak column, and the quantity formed measured using a liquid scintillation counter.

The next data set is described as follows: Hot plate test, i.v. The data set is classed as in vivo. Conditions: Mus musculus, iv, mice, hot plate 55° C., Table III 50% analgesia. The protocol:
(§3) 1) Hot .plate test: This involves the licking and jumping reflex of the mouse on a plate heated to 55° C., according to the method of Jacob et al (Arch Int. Pharmacodyn. 122 287, 1959; 1961).
1.1. Administered i.v. (100 μl in tail vein) in mice, the compounds tested display a characteristic effect both on the latency time of jumping and on latency time of licking. These effects are antagonized by naloxone (0.5 mg/kg s.c.).
The results are expressed in Table III as a % analgesia. The percentage analgesia is expressed for each dose of compound tested by the following formula: [formula]
A general note: Hot-plate and tail-flick tests time the reaction to a heat stimulus.

Data set [3] is described as follows: Locomotor activity (righting movements) after long-term sulpiride. The data set is classed as in vivo, rats. The settings on record: rat, after three weeks of sulpiride, control rat 100%. As to the method:
c) Potentiation of the behavioral effects (locomotor hyperactivity) induced by the compounds according to the invention after long-term treatment with […]: 1 h after i.v. or p.o. administration in rats, the compounds according to the invention induce an increase in locomotor activity. […] This potentiation is not apparent until three weeks after the beginning of the treatment with neuroleptics.

Data set [4] in a line: Tolerance after long-term administration, rats (% analgesia). The settings on record: rat, in vivo. The data set is classed as in vivo. The protocol: (§4) e) Study of the tolerance and addiction effects induced by long-term administration of the compound of Example 8:
(§5) 1) The compound 8 is administered s.c. four times per 24 hours at a dose of 5 mg/kg for 6 days to mice and at 10 mg/kg to rats.
(§6) Morphine (hydrochloride) is administered under the same conditions (0.5 mg/kg in mice, 2 mg/kg in rats). The control animals receive only the vehicle.

Data set [5] can be described thus: Tolerance after long-term administration, mice (% analgesia). The data set is classed as in vivo. The settings on record: mouse, in vivo. The protocol: as §4, §5, §6
Data set [6] is described as follows: Addiction effects: naloxone-precipitated abstinence syndrome after long-term treatment. The data set is classed as in vivo. Conditions: rats, 6 days long-term treatment, naloxone 2 mg/kg s.c.; compared to morphine. The protocol:
as §5
2) After long-term treatment for 6 days under the conditions described above, the rats undergo an injection of 2 mg/kg of naloxane s.c. The signs of abstinence syndrome are measured according to Cowan et al. (J. Pharmacol. Exp. Ther. (1988) 246, 950).

A further data set is described as follows: Hot plate test, i.p. The data set is classed as in vivo. The settings on record: mice. As to the method:
as §3
1.2 Administered i.p. in mice, the test compounds display a characteristic effect on the times of restraint of jumping and of licking. These effects are antagonized by naloxone (0.5 mg/kg).

A further data set deals with cerebral NEP. Description: In vivo inhibition of cerebral NEP. The settings on record: mice, i.v., 2.7 μmol/kg (Example 7: same conditions). The protocol:
2) "In vivo" inhibition of cerebral NEP
The enzymatic activity of cerebral NEP is compared in mice untreated or treated with a given dose of compound (approximately 2.5 mg/kg injected intravenously. The animals are sacrificed at variable times after injection of the inhibitor, and the NEP activity is determined in the brain by measuring the degradation of (^3 H)-D-Ala^2 -Leu^5 -enkephalin.
For the final compound of Example 1, injected at a dose of 2.7 μmol/kg (47.6 μg in 100 μl), the following results are obtained: […]

The nature of data set [7]: Tail flick test (withdrawal of the tail), i.v. The data set is classed as in vivo. The settings on record: rats, 10 mg/kg. The protocol: 3) Test of withdrawal of the tail in rats: (tail flick test): administered i.v. in rats, the compounds according to the invention produce a significant extension of the time of withdrawal of the tail. These effects are antagonized by naloxone (0.5 mg/kg s.c.).
The results are expressed as a % analgesia for the same dose (10 mg/kg) of all the compounds tested.

Data set [8] is described as follows: Test on abdominal cramps induced by phenylbenzoquinone, i.v. The data set is classed as in vivo. As to the method: 2) Test on abdominal cramps
(Hendershot and Forsaith. J. Pharmacol. (1975), 125, 237): This test measures the number of cramps induced by i.p. injection of 100 μl of a 0.02% solution of phenylbenzoquinone. The number of cramps is counted during 10 minutes, 10 minutes after the injection. Administered i.v., the compounds decrease the number of cramps.

The nature of data set [9]: Cross-tolerance with morphine, i.v. injection into morphine-tolerant animal. The settings on record: mouse or rat.

Several values for one entry are separate records, joined by “and”; a condition that tells them apart may be missing. Equal entries are not always repeated.

For `C[S+]([O-])CCC(N)CSSCC(CC[S+](C)[O-])C(=O)NC(CC(=O)OCc1ccccc1)Cc1ccccc1` (stereo not drawn) [Example 30], the half-maximal inhibitory concentration (IC50) in data set [1] was 3 nM; in data set [2] it was 2 nM. Further, the values for the Immobility time in “Mice despair test” (2 mg/kg i.p.) and in “Mice despair test” (20 mg/kg p.o.) were 96 ± 8 s and 101 ± 10 s, respectively. Further, in the data set “Hot plate test, i.v.”, the ED50 turned out to be 3 mg/kg. The Locomotor activity is 370% in [3] (i.v. (so in the source), 20 mg/kg) and 350% in data set [3] (i.v., 2 mg/kg).
For `C[S+]([O-])CCC(N)CSSCC(Cc1ccccc1)C(=O)NCC(=O)OCc1ccccc1` (stereo not drawn) [Example 8], the IC50 in [1] and in [2] was 2 nM in each case. Further, the “% analgesia relative to the controls” value in data set [4] is 40 ± 5% and 30 ± 7%; in data set [5], 100 ± 10% and 100 ± 8% and 70 ± 15%. This compound also gave an ED50 in “Hot plate test, i.v.” of 2.5 mg/kg. In addition, the addiction effects result in data set [6] was “very weak addiction effects”.
As to `CSCCC(N)CSSCC(Cc1ccccc1)C(=O)NC(Cc1ccccc1)C(=O)OCc1ccccc1` (stereo not drawn) [Example 7], the “dose in i.p. hot plate table” value in “Hot plate test, i.p.” was found to be 8 mg/kg. Moreover, the “% inhibition cerebral NEP” value in the data set with cerebral NEP (60') is listed as 96 ± 5%; with cerebral NEP (120') it was 96 ± 4%; in the data set on cerebral NEP (180'), 92 ± 4%. Further, in data set [1], the IC50 was determined as 2.5 nM. In addition, in data set [7], the “% analgesia (tail flick)” value stood at 42%. Moreover, the “% analgesia (abdominal cramps)” value in data set [8] (2.5 mg/kg) is on record as 32% ± 4; in [8] (5 mg/kg), 68% ± 9; in [8] (10 mg/kg) it was 95% ± 4. Moreover, the 50% effect level in “Hot plate test, i.v.” (ED50) was put at a dose of 5 mg/kg. Further, the Locomotor activity in data set [3] (i.v., 3 mg/kg) was 400%. The “analgesic response in morphine-tolerant animal” value in [9] is listed as “analgesic response identical to that obtained in a control animal”. The cross-tolerance with morphine entry in data set [9] was “absence of cross-tolerance”.
As to `CSCCC(N)CSSCC(Cc1ccccc1)C(=O)NCC(=O)OCc1ccccc1` (stereo not drawn) [Example 5], in the data set “Hot plate test, i.p.”, the “dose in i.p. hot plate table” value turned out to be 7 mg/kg. Moreover, the IC50 in data set [1] and in data set [2] was 2 nM throughout. Also, the Immobility time in the data set “Mice despair test” (5 mg/kg i.p.) turned out to be 108 ± 12 s. Besides, the “% analgesia (tail flick)” value in [7] stood at 25%. Further, it took a dose of 2.5 mg/kg to reach the 50% effect level in “Hot plate test, i.v.” (ED50). Moreover, the Locomotor activity in data set [3] (i.v., 5 mg/kg) stood at 400%.
